Source: patent US20200341000A1, “METHOD OF SCREENING COMPOUNDS FOR TREATING CNS DISORDERS” (SAGE THERAPEUTICS, INC., priority 2017, published 2020)
Entries after “also recorded” stand apart in the source; their conditions may differ.

Assays:
[1] = test system: tonic current in dentate gyms granule cells (DGGCs); experiment: Sustained (metabotropic) enhancement of tonic current in DGGCs after 15 min exposure and washout; format: cell-based, mice; details: protocol as in FIG. 3; n=6-8 cells
Protocol: Brain slices were prepared from 3- to 5-week-old male C57 mice. Mice were anesthetized with isoflurane, decapitated, and brains were rapidly removed and submerged in ice-cold cutting solution containing (mM): 126 NaCl, 2.5 KCl, 0.5 CaCl2, 2 MgCl2, 26 NaHCO3, 1.25 NaH2PO4, 10 glucose, 1.5 sodium pyruvate, and 3 kynurenic acid. Coronal 310 μm thick slices were cut with the vibratome VT1000S (Leica Microsystems, St Louis, Mo., USA). The slices were then transferred into incubation chamber filled with prewarmed (31-32° C.) oxygenated artificial cerebro-spinal fluid (ACSF) of the following composition (in mM): 126 NaCl, 2.5 KCl, 2 CaCl2, 2 MgCl2, 26 NaHCO3, 1.25 NaH2PO4, 10 glucose, 1.5 sodium pyruvate, 1 glutamine, 3 kynurenic acid and 0.005 GABA bubbled with 95% O2-5% CO2. Slices were allowed to recover at 32° C. for at least 1 hr before recording. Exogenous GABA was added in an attempt to standardize ambient GABA in the slice and provide an agonist source for newly inserted extrasynaptic GABAARs.
After recovery, a single slice was transferred to a submerged, dual perfusion recording chamber (Warner Instruments, Hamden, Conn., USA) on the stage of an upright microscope (Nikon FN-1) with a 40× water immersion objective equipped with DIC/IR optics. Slices were maintained at 32° C. and gravity-superfused with ACSF solution throughout experimentation and perfused at rate of 2 ml/min with oxygenated (O2/CO2 95/5%) ACSF.
Whole-cell currents were recorded from the dentate gyms granule cells (DGGCs) in 310-μm-thick coronal hippocampal slices. Patch pipettes (5-7MΩ) were pulled from borosilicate glass (World Precision Instruments) and filled with intracellular solution of the composition (in mM) as follows: 140 CsCl, 1 MgCl2, 0.1 EGTA, 10 HEPES, 2 Mg-ATP, 4 NaCl and 0.3 Na-GTP (pH=7.2 with CsOH). A 5 min period for stabilization after obtaining the whole-cell recording conformation (holding potential of −60 mV) was allowed before currents were recorded using an Axopatch 200B amplifier (Molecular Devices), low-pass filtered at 2 kHz, digitized at 20 kHz (Digidata 1440A; Molecular Devices), and stored for offline analysis.
For tonic current measurements, an all-points histogram was plotted for a 10 s period before and during 100 μM picrotoxin application, once the response reached a plateau level. Recordings with unstable baselines were discarded. Fitting the histogram with a Gaussian distribution gave the mean baseline current amplitude and the difference between the amplitudes before and during picrotoxin was considered to be the tonic current. The negative section of the all-points histogram which corresponds to the inward IPSCs was not fitted with a Gaussian distribution (Kretschmannova et al., 2013; Nusser and Mody, 2002). Series resistance and whole-cell capacitance were continually monitored and compensated throughout the course of the experiment. Recordings were eliminated from data analysis if series resistance increased by >20%. Spontaneous inhibitory post-synaptic currents (sIPSCs) were analyzed using the mini-analysis software (version 5.6.4; Synaptosoft, Decatur, Ga.). Minimum threshold detection was set to 3 times the value of baseline noise signal. To assess sIPSC kinetics, the recording trace was visually inspected and only events with a stable baseline, sharp rising phase, and single peak were used to negate artifacts due to event summation. Only recordings with a minimum of 200 events fitting these criteria were analyzed. sIPSCs amplitude, and frequency from each experimental condition was pooled and expressed as mean±SEM. To measure sIPSC decay, 100 consecutive events were averaged and the decay was fitted to a double exponential and the weighted decay constant (tw) was determined. Statistical analysis was performed by using Student t-test (paired and unpaired where appropriate), where p<0.05 is considered significant.

[2] = test system: GABAA receptor β3 subunit S408/9 phosphorylation; experiment: Immunoblot of β3 S408/9 phosphorylation in hippocampal slices; format: cell-based, mice; details: 100 nM
Protocol: Hippocampi were dissected out of acute slices from 8 to 12 week old C57/B16 mice and lysed with phosphate buffer including: 20 mM Tris-HCl, 150 mM NaCl, 5 mM EDTA, 10 mM NaF, 2 mM Na3VO4, 10 mM pyrophosphate, 0.1% SDS and 1% Triton after drug treatment. The β3 subunit was isolated using immunoprecipitation with β3 antibodies, after correction for protein content and the specific activity of labeling. Results were attained by SDS/PAGE followed by autoradiography (Abramian et al., 2010). For biotinylation experiments hippocampi were dissected out of acute slices from 8 to 12 week old C57/B16 mice and incubated in artificial cerebrospinal fluid (ACSF) described above at 30° C. for 1 h for recovery before experimentation. Slices were then placed on ice and incubated for 30 min with 1 mg/mL NHS-SS-biotin (Pierce). Excess biotin was removed by a 50 mM glycine quenching buffer, followed by washing of slices three times in ice-cold ACSF. The tissue was snap frozen on dry ice for 5 min, thawed at 4° C. and lysed. The lysates were solubilized with 2% Triton at 4° C. on a rotating wheel for 1 h. The insoluble material was removed by centrifugation, and 350-500 μg of protein lysate were incubated with NeutrAvidin beads (Pierce) for 18-24 h at 4° C. Bound material was eluted with sample buffer and subjected to SDS/PAGE and then immunoblotted with the indicated antibodies. Blots were then quantified using the CCD-based ChemiDoc XRS ? system. Antibodies against the β3 subunit and the phospho-β3 antibody were generated and verified by the laboratory of S.J.M. (Vien et al., 2015).
To produce antibodies specific for phosphorylated S443, rabbits were injected with a synthetic peptide corresponding to residues […] of the murine α4 subunit in which the serine residue corresponding to S443 was chemically phosphorylated; […]. Hippocampal slices were treated with vehicle (Con), or SGE-516 for 20 min. Slices were immunoblotted with pS408/9, β3, or actin antibodies. The ratio of pS408/9/β3 immunoreactivity was then normalized to control slices (100%=the line).
Hippocampal slices were treated with 100 nM ALLO or P4 (progesterone), and S408/9 phosphorylation was then determined as detailed above, n=4 slices (FIG. 18D). Hippocampal slices were treated with 100 nM ORG (FIG. 18E). S408/9 phosphorylation was examined using immunoblotting.

[3] = test system: GABA-evoked currents in GT1-7 cells; experiment: Patch-clamp of GABA-induced currents in GT1-7 cells, compound in the pipette electrolyte; format: cell-based; details: 100 nM in electrolyte, GABA EC20, 20 min time course
Protocol: Patch-clamp recordings were made from GT1-7 cells. The magnitude of the GABA-induced currents (IGABA) at EC20 agonists concentration were then measured, in the presence of control electrolyte or that supplemented with 100 nM ALLO, or 100 nM ORG OD 02-0 over a time course of 20 min.

[4] = target: T1, GABAARs composed of α4β3 subunits (Homo sapiens, UniProt P28472+P48169); experiment: Acute modulation of GABA-induced currents in HEK-293 cells; format: cell-based; parameters: dose or concentration left out as unconfirmed; details: rapidly applied with GABA
T1 construct: expressed in transfected cells; host or cells: HEK-293
T1 sequence (P48169 36-554): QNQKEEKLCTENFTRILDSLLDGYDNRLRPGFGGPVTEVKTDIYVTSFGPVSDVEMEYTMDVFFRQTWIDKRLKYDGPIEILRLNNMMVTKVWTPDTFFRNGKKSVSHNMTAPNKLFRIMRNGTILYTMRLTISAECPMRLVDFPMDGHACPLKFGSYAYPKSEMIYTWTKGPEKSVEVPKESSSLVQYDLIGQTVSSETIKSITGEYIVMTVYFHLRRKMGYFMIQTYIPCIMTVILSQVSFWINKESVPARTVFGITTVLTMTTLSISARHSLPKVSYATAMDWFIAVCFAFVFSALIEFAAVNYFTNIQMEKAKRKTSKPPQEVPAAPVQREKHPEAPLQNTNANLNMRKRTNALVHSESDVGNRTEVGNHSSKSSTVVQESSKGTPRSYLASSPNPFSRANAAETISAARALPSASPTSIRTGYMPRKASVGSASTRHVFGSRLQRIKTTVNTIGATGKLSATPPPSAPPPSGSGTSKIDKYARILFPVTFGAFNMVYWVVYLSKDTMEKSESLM
T1 sequence (P28472 26-473): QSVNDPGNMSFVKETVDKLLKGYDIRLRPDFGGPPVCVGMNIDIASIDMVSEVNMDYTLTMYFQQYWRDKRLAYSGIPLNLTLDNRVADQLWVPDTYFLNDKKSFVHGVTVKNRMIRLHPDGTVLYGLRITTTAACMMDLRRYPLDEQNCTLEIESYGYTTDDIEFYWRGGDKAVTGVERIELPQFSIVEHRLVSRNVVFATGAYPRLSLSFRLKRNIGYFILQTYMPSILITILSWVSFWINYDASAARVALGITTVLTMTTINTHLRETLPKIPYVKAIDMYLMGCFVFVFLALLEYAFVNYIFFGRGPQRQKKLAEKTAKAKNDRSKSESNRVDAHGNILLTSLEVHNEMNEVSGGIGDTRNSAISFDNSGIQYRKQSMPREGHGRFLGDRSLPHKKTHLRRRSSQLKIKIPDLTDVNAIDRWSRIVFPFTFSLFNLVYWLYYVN

## C=C[C@]12CCC(=O)C=C1CC[C@H]1[C@@H]3CC[C@H](C(C)=O)[C@@]3(C)CC[C@@H]12 [ORG OD 02-0]
[1]
  amplitude and density of GABAergic tonic current at varying doses: dosage-dependent effect; also recorded: dosage dependent effect
[2]
  S408/9 phosphorylation in hippocampal slices: regulated
[3]
  GABA-evoked currents (IGABA) over time: sustained increases
[4]
  acute modulation of GABA-evoked current (IGABA): did not acutely modulate; also recorded: does not acutely modulate
